Assay results from ChEMBL document CHEMBL1201862, “PubChem BioAssay data set” (2004).
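Briefly, cells in 96-well plates were exposed to five compound concentrations for 48 h, and endpoints were estimated by linear interpolation. Abbreviation: GI50, concentration required for 50% inhibition of growth.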 The source made the active and inactive calls. Rule as the data show it: active = GI50 up to about 1.1 µM and inactive = higher.

Key:
Experiment in all cases: DTP human tumour cell line panel, 48 h
HCT-15 = tested on: HCT-15
IGROV-1 = tested on: IGROV-1
HT-29 = tested on: HT-29
786-0 = tested on: 786-0
MOLT-4 = tested on: MOLT-4
LOX IMVI = tested on: LOX IMVI
UACC-62 = tested on: UACC-62
TK-10 = tested on: TK-10
NCI-H226 = tested on: NCI-H226
COLO 205 = tested on: COLO 205
MDA-N = tested on: MDA-N
NCI/ADR-RES = tested on: NCI/ADR-RES
DU-145 = tested on: DU-145
HCC 2998 = tested on: HCC 2998
HL-60 = tested on: HL-60
RXF 393 = tested on: RXF 393
CAKI-1 = tested on: CAKI-1
HOP-92 = tested on: HOP-92

Row | Compound | GI50 (HCT-15) | GI50 (IGROV-1) | GI50 (HT-29) | GI50 (786-0) | GI50 (MOLT-4) | GI50 (LOX IMVI) | GI50 (UACC-62) | GI50 (TK-10) | GI50 (NCI-H226) | GI50 (COLO 205) | GI50 (MDA-N) | GI50 (NCI/ADR-RES) | GI50 (DU-145) | GI50 (HCC 2998) | GI50 (HL-60) | GI50 (RXF 393) | GI50 (CAKI-1) | GI50 (HOP-92)
1 | COc1cc2oc(=O)cc(C)c2c(OC)c1O | > 100 µM | > 100 µM (inactive) | > 100 µM (inactive) | > 100 µM (inactive) | > 100 µM (inactive) | > 100 µM (inactive) | > 100 µM (inactive) | > 100 µM (inactive) | > 100 µM (inactive) | > 100 µM (inactive) | > 100 µM (inactive) | > 100 µM (inactive) | > 100 µM (inactive) |  |  |  |  | 
2 | Cc1cc(NCCCCCCNc2cc(C)nc3cc(N(C)C)ccc23)c2ccc(N(C)C)cc2n1 | > 100 µM |  | 36.1 µM (inactive) | 52.4 µM (inactive) | 6.9 µM (inactive) |  | 9.2 µM (inactive) | > 100 µM (inactive) |  |  |  |  |  | 22.4 µM (inactive) | 3.19 µM (inactive) | > 100 µM (inactive) | 55.8 µM (inactive) | 
3 | c1ccc(OC2=NC3=S(S2)SC(Oc2ccccc2)=N3)cc1 | 18.9 µM | 20.8 µM (inactive) | 21.4 µM (inactive) | 15.5 µM (inactive) | 9.98 µM (inactive) | 19.6 µM (inactive) | 18.9 µM (inactive) | 17.8 µM (inactive) | 24.3 µM (inactive) | 17.9 µM (inactive) |  |  |  | 19.5 µM (inactive) | 16.8 µM (inactive) | 6.01 µM (inactive) | 17.7 µM (inactive) | 
4 | CC1(F)C=CC(=O)C=C1 | 20 µM |  | 46.5 µM (inactive) | 17 µM (inactive) | 26.4 µM (inactive) | 16.3 µM (inactive) | 44.9 µM (inactive) | 38.9 µM (inactive) | 86.9 µM (inactive) | > 100 µM (inactive) | 33.2 µM (inactive) | 17.6 µM (inactive) | > 100 µM (inactive) | > 100 µM (inactive) | 27.6 µM (inactive) |  | 55.7 µM (inactive) | 30.5 µM (inactive)
5 | O=c1oc2ccccc2n1CCCn1c(=O)oc2ccccc21 | > 100 µM | > 100 µM (inactive) | > 100 µM (inactive) | > 100 µM (inactive) | > 100 µM (inactive) | > 100 µM (inactive) | > 100 µM (inactive) | > 100 µM (inactive) | > 100 µM (inactive) | > 100 µM (inactive) |  | > 100 µM (inactive) | > 100 µM (inactive) |  | > 100 µM (inactive) | 82.8 µM (inactive) | > 100 µM (inactive) | 
6 | CC(C)(C)c1ccccc1N1C(=O)c2ccc3c4c(ccc(c24)C1=O)N(c1ccccc1C(C)(C)C)C3=O | > 100 µM | > 100 µM (inactive) | > 100 µM (inactive) | > 100 µM (inactive) | 5.46 µM (inactive) |  | > 100 µM (inactive) |  |  | > 100 µM (inactive) | > 100 µM (inactive) | > 100 µM (inactive) | > 100 µM (inactive) | > 100 µM (inactive) |  | > 100 µM (inactive) | > 100 µM (inactive) | 6.43 µM (inactive)
7 | CC(C)CC(=O)NC(C(=O)NC(C(=O)NC(CC(C)C)C(O)CC(=O)NC(C)C(=O)NC(CC(C)C)C(O)CC(=O)O)C(C)C)C(C)C (stereo not given) | > 100 µM | > 100 µM (inactive) | > 100 µM (inactive) | > 100 µM (inactive) | > 100 µM (inactive) | > 100 µM (inactive) | > 100 µM (inactive) | > 100 µM (inactive) | 0.436 µM (active) | > 100 µM (inactive) | > 100 µM (inactive) | > 100 µM (inactive) | > 100 µM (inactive) | > 100 µM (inactive) |  |  | > 100 µM (inactive) | > 100 µM (inactive)
8 | C[N+](C)(C)CC1CCCCC1=O (stereo not given) | 14.1 µM | > 100 µM (inactive) | 19.6 µM (inactive) | > 100 µM (inactive) | 12.4 µM (inactive) | 14 µM (inactive) | 18.9 µM (inactive) | 37.1 µM (inactive) | > 100 µM (inactive) | 22.6 µM (inactive) |  |  |  |  | 13.9 µM (inactive) | 18.4 µM (inactive) |  | 
